# Laboratory results taken from patent US9169259B2, “Imidazopyridazine compounds” (Hoffmann-La Roche Inc., priority 2011, dated 2015).
# Counter-ions that a name gives are not always drawn.
# Molecular target: recombinant human SYK360-635 (Homo sapiens (Human), UniProt P43405)
# Assay: SYK kinase assay (33P ATP filtration, IC50 of SYK inhibition)
# Format: biochemical
# Settings: truncated SYK aa 360-635 0.5 nM, ATP 20 μM, peptide 5 μM, 30° C. 15 min; read-out: ENZYME_FILTRATION_IC50
# Method: Determination of IC50 of Spleen Tyrosine Kinase (SYK) Inhibition:
# SYK kinase assay is a standard kinase assay adapted to a 96 well plate format. This assay is performed in 96-well format for IC50 determination with […] which represented 10 half log dilutions and a 40 μL reaction volume. The assay measures the incorporation of radiolabeled ^33P γATP into an N-terminally biotinylated peptide substrate, derived from naturally occurring phosphoacceptor consensus sequence (Biotin-11aa DY*E). Phosphorylated products were detected upon termination of reactions with EDTA and the addition of Streptavidin coated beads.
# Assay plates: 96-well MultiScreen 0.65 um filter plates (Millipore Cat. No.: MADVNOB10)
# final concentration: 50 mM HEPES pH7.5
# BSA: Bovine Serum Albumin Fraction V, fatty acid free (Roche Diagnostics GmbH, Cat. No. 9100221) diluted to a final concentration of 0.1%
# Assay Dilution Buffer (ADB): 50 mM HEPES, 0.1 mM EGTA, 0.1 mM Na Vanadate, 0.1 mM β-glycerophosphate, 10 mM MgCl2, 1 mM DTT, 0.1% BSA, pH 7.5
# Bead wash buffer: 10 g/L PBS (Phosphate buffered saline) with 2M NaCl+1% phosphoric acid.
# DMSO and the mixture was incubated for 10 min at RT.
# The kinase reaction was initiated by the addition of 10 μL 4× substrate cocktail containing the DYE peptide substrate [0 or 5 μM], ATP [20 μM] and ^33PγATP [2 μCi/r×n]. After incubation at 30° C. for 15 min, the reaction was terminated by the transfer of 25 μL of the reaction sample to a 96 well 0.65 μm Millipore MADVNOB membrane/plate containing 200 μL 5 mM EDTA and 20% Streptavidine coated beads in PBS.
# After the last wash membrane/plates were transferred to an adaptor plate, heat dried for 15 min at 60° C., and 50 μL scintillation cocktail was added to each well and 4 h later the amount of radioactivity was counted in a top counter.
row,Compound,IC50
1,"CCN(CC)CCOc1ccc(-c2cc(Nc3cccc(N4CCCC4C)n3)c3nccn3n2)cc1 (centres unmarked) [Example I-92, {6-[4-(2-Diethylamino-ethoxy)-phenyl]-imidazo[1,2-b]pyridazin-8-yl}-[6-(2-methyl-pyrrolidin-1-yl)-pyridin-2-yl]-amine]",0.0606 µM
2,"CCC1CCCN1c1cccc(Nc2cc(-c3ccccc3)nn3ccnc23)n1 (centres unmarked) [Example I-30, [6-(2-Ethyl-pyrrolidin-1-yl)-pyridin-2-yl]-(6-phenyl-imidazo[1,2-b]pyridazin-8-yl)-amine hydrochloride]",1.96 µM
3,"COc1ccc(Nc2cc(-c3ccccc3)nn3ccnc23)nc1OC [Example I-44, (5,6-Dimethoxy-pyridin-2-yl)-(6-phenyl-imidazo[1,2-b]pyridazin-8-yl)-amine]",0.0476 µM
4,"COc1ccc(Nc2cc(-c3ccc(C(=O)O)cc3)nn3ccnc23)nc1OC [Example I-26, 4-[8-(5,6-Dimethoxy-pyridin-2-ylamino)-imidazo[1,2-b]pyridazin-6-yl]-benzoic acid]",0.265 µM
5,"Cc1c(C(=O)O)cccc1-c1cc(Nc2cccc(N3CCC[C@@H]3C)n2)c2nccn2n1 [Example I-24, 2-Methyl-3-{8-[6-((S)-2-methyl-pyrrolidin-1-yl)-pyridin-2-ylamino]-imidazo[1,2-b]pyridazin-6-yl}-benzoic acid]",0.194 µM
6,"C[C@H]1CCCN1c1cccc(Nc2cc(-c3cccc(Cl)c3)nn3ccnc23)n1 [Example I-71, [6-(3-Chloro-phenyl)-imidazo[1,2-b]pyridazin-8-yl]-[6-((S)-2-methyl-pyrrolidin-1-yl)-pyridin-2-yl]-amine hydrochloride]",0.246 µM
7,"CC1CCCN1c1cccc(Nc2cc(-c3cccc(C(=O)NCCN(C)C)c3)nn3ccnc23)n1 (centres unmarked) [Example I-46, N-(2-Dimethylamino-ethyl)-3-{8-[6-(2-methyl-pyrrolidin-1-yl)-pyridin-2-ylamino]-imidazo[1,2-b]pyridazin-6-yl}-benzamide]",0.141 µM
8,"CC1CCCN1c1cccc(Nc2cc(-c3ccc4c(c3)OCO4)nn3ccnc23)n1 (centres unmarked) [Example I-18, (6-Benzo[1,3]dioxol-5-yl-imidazo[1,2-b]pyridazin-8-yl)-[6-(2-methyl-pyrrolidin-1-yl)-pyridin-2-yl]-amine]",0.115 µM
